Results reported in patent US7064120B2, “Tricyclic pyridyl carboxamides and derivatives thereof tocolytic oxytocin receptor antagonists” (Wyeth, priority 2001, dated 2006).

Molecular target: T1, human vasopressin V1a receptor subtype (Homo sapiens, UniProt P37288)
T1 construct: host or cells: CHO cells, stably transfected (pZeoSV vector for the Thibonnier line)
Experiment: Vasopressin binding in CHO cell membranes expressing human vasopressin V1a subtype receptors ([3H]Manning ligand radioligand binding)
Conditions: 100 nM
Method in brief: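 Membranes from CHO cells expressing human V1a, 25–50 μg protein/well, incubated 60 min at room temperature with [3H]Manning ligand (20 μL of 8 nM stock) in 50 mM Tris-HCl pH 7.4 with BSA, MgCl2 and protease inhibitors. Filtration then scintillation counting; reported as % inhibition or IC50 (nM).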

T1 sequence (P37288 whole entry): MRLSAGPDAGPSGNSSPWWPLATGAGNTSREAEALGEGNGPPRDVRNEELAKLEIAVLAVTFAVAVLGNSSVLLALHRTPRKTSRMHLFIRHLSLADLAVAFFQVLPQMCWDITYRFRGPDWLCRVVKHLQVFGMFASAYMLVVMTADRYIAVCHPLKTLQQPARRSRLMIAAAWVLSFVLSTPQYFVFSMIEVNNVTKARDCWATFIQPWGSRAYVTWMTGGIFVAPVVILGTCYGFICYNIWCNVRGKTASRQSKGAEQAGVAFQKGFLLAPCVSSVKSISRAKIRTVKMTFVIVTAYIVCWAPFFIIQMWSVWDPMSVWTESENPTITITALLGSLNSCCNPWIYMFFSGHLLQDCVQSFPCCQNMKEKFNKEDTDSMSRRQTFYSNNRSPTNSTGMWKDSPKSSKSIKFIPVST

| Structure (SMILES) | inhibition at 0.1 µM [%] |
| --- | --- |
| COc1cccc(-c2cc(OC)c(C(=O)N3Cc4ccc(C(=O)N5CCN(c6ccncc6)CC5)n4Cc4ccccc43)cc2Cl)c1 [Example 120, {10-[(6-Chloro-3,3′-dimethoxy-[1,1′-biphenyl]-4-yl)carbonyl]-10,11-dihydro-5H-pyrrolo[2,1-c][1,4]benzodiazepin-3-yl}[4-(4-pyridinyl)-1-piperazinyl]methanone] | 6 |
| COc1cc(C(=O)N2Cc3ccc(C(=O)N4CCN(c5ccncc5)CC4)n3Cc3ccccc32)ccc1-c1cccc2ccccc12 [Example 121, {10-[3-Methoxy-4-(naphthalen-1-yl)benzoyl]-10,11-dihydro-5H-pyrrolo[2,1-c][1,4]benzodiazepin-3-yl}[4-(4-pyridinyl)-1-piperazinyl]methanone] | 17 |
| COc1ccccc1-c1ccc(C(=O)N2Cc3ccc(C(=O)N4CCN(c5ccncc5)CC4)n3Cc3ccccc32)cc1OC [Example 122, {10-[(2,2′-Dimethoxy-[1,1′-biphenyl]-4-yl)carbonyl]-10,11-dihydro-5H-pyrrolo[2,1-c][1,4]benzodiazepin-3-yl}[4-(4-pyridinyl)-1-piperazinyl]methanone] | 9 |
| COc1cccc(-c2ccc(C(=O)N3Cc4ccc(C(=O)N5CCN(c6ccncc6)CC5)n4Cc4ccccc43)cc2OC)c1 [Example 123, {10-[(2,3′-Dimethoxy-[1,1′-biphenyl]-4-yl)carbonyl]-10,11-dihydro-5H-pyrrolo[2,1-c][1,4]benzodiazepin-3-yl}[4-(4-pyridinyl)-1-piperazinyl]methanone] | 71 |
| O=C(c1ccc2n1Cc1ccccc1N(C(=O)c1ccc(-c3cccc4ccccc34)cc1Cl)C2)N1CCN(c2ccncc2)CC1 [Example 124, {10-[2-Chloro-4-(naphthalen-1-yl)benzoyl]-10,11-dihydro-5H-pyrrolo[2,1-c][1,4]benzodiazepin-3-yl}[4-(4-pyridinyl)-1-piperazinyl]methanone] | 11 |
| COc1ccccc1-c1ccc(C(=O)N2Cc3ccc(C(=O)N(C)CCc4ccncc4)n3Cc3ccccc32)cc1OC [Example 125, 10-[(2,2′-Dimethoxy-[1,1′-biphenyl]-4-yl)carbonyl]-N-methyl-N-[2-(4-pyridinyl)ethyl]-10,11-dihydro-5H-pyrrolo[2,1-c][1,4]benzodiazepine-3-carboxamide] | 17 |
| COc1ccccc1-c1ccc(C(=O)N2Cc3ccc(C(=O)N(C)CCc4ccncc4)n3Cc3ccccc32)cc1C [Example 126, 10-[(2′-Methoxy-2-methyl-[1,1′-biphenyl]-4-yl)carbonyl]-N-methyl-N-[2-(4-pyridinyl)ethyl]-10,11-dihydro-5H-pyrrolo[2,1-c][1,4]benzodiazepine-3-carboxamide] | 38 |
| Cc1ccccc1-c1ccc(C(=O)N2Cc3ccc(C(=O)N(C)CCc4ccncc4)n3Cc3ccccc32)cc1C [Example 127, 10-[(2,2′-Dimethyl-[1,1′-biphenyl]-4-yl)carbonyl]-N-methyl-N-[2-(4-pyridinyl)ethyl]-10,11-dihydro-5H-pyrrolo[2,1-c][1,4]benzodiazepine-3-carboxamide] | 66 |
| COc1cccc(-c2ccc(C(=O)N3Cc4ccc(C(=O)N(C)CCc5ccncc5)n4Cc4ccccc43)cc2C)c1 [Example 128, 10-[(3′-Methoxy-2-methyl-[1,1′-biphenyl]-4-yl)carbonyl]-N-methyl-N-[2-(4-pyridinyl)ethyl]-10,11-dihydro-5H-pyrrolo[2,1-c][1,4]benzodiazepine-3-carboxamide] | 31 |
| COc1ccccc1-c1ccc(C(=O)N2Cc3ccc(C(=O)N(C)CCc4ccncc4)n3Cc3ccccc32)cc1 [Example 129, 10-[(2′-Methoxy-[1,1′-biphenyl]-4-yl)carbonyl]-N-methyl-N-[2-(4-pyridinyl)ethyl]-10,11-dihydro-5H-pyrrolo[2,1-c][1,4]benzodiazepine-3-carboxamide] | 54 |
| Cc1ccccc1-c1ccc(C(=O)N2Cc3ccc(C(=O)N(C)CCc4ccncc4)n3Cc3ccccc32)cc1 [Example 130, N-Methyl-10-[(2′-methyl-[1,1′-biphenyl]-4-yl)carbonyl]-N-[2-(4-pyridinyl)ethyl]-10,11-dihydro-5H-pyrrolo[2,1-c][1,4]benzodiazepine-3-carboxamide] | 5 |
| COc1cc(C(=O)N2Cc3ccc(C(=O)N(C)CCc4ccncc4)n3Cc3ccccc32)ccc1-c1ccccc1C [Example 131, 10-[(2-Methoxy-2′-methyl-[1,1′-biphenyl]-4-yl)carbonyl]-N-methyl-N-[2-(4-pyridinyl)ethyl]-10,11-dihydro-5H-pyrrolo[2,1-c][1,4]benzodiazepine-3-carboxamide] | 83 |
| COc1cc(-c2ccccc2C)c(Cl)cc1C(=O)N1Cc2ccc(C(=O)N(C)CCc3ccncc3)n2Cc2ccccc21 [Example 132, 10-[(6-Chloro-3-methoxy-2′-methyl-[1,1′-biphenyl]-4-yl)carbonyl]-N-methyl-N-[2-(4-pyridinyl)ethyl]-10,11-dihydro-5H-pyrrolo[2,1-c][1,4]benzodiazepine-3-carboxamide] | 26 |
| COc1cccc(-c2cc(OC)c(C(=O)N3Cc4ccc(C(=O)N(C)CCc5ccncc5)n4Cc4ccccc43)cc2Cl)c1 [Example 133, 10-[(6-Chloro-3,3′-dimethoxy-[1,1′-biphenyl]-4-yl)carbonyl]-N-methyl-N-[2-(4-pyridinyl)ethyl]-10,11-dihydro-5H-pyrrolo[2,1-c][1,4]benzodiazepine-3-carboxamide] | 19 |
| COc1cc(C(=O)N2Cc3ccc(C(=O)N(C)CCc4ccncc4)n3Cc3ccccc32)ccc1-c1cccc2ccccc12 [Example 134, 10-[3-Methoxy-4-(naphthalen-1-yl)benzoyl]-N-methyl-N-[2-(4-pyridinyl)ethyl]-10,11-dihydro-5H-pyrrolo[2,1-c][1,4]benzodiazepine-3-carboxamide] | 30 |
| COc1cccc(-c2ccc(C(=O)N3Cc4ccc(C(=O)N(C)CCc5ccncc5)n4Cc4ccccc43)cc2OC)c1 [Example 135, 10-[(2,3′-Dimethoxy-[1,1′-biphenyl]-4-yl)carbonyl]-N-methyl-N-[2-(4-pyridinyl)ethyl]-10,11-dihydro-5H-pyrrolo[2,1-c][1,4]benzodiazepine-3-carboxamide] | 68 |
| CN(CCc1ccncc1)C(=O)c1ccc2n1Cc1ccccc1N(C(=O)c1ccc(-c3cccc4ccccc34)cc1Cl)C2 [Example 136, 10-[2-Chloro-4-(naphthalen-1-yl)benzoyl]-N-methyl-N-[2-(4-pyridinyl)ethyl]-10,11-dihydro-5H-pyrrolo[2,1-c][1,4]benzodiazepine-3-carboxamide] | 7 |
| Cc1cc(C(=O)N2Cc3ccc(C(=O)N(C)CCc4ccncc4)n3Cc3ccccc32)ccc1-c1ccccc1C(F)(F)F [Example 137, N-Methyl-10-{[2-methyl-2′-trifluoromethyl-[1,1′-biphenyl]-4-yl]carbonyl}-N-[2-(4-pyridinyl)ethyl]-10,11-dihydro-5H-pyrrolo[2,1-c][1,4]benzodiazepine-3-carboxamide] | -1 |
| COc1ccccc1-c1ccc(C(=O)N2Cc3ccc(C(=O)N4CCCCC4c4cccnc4)n3Cc3ccccc32)cc1C (stereo not shown) [Example 138, {10-[(2′-Methoxy-2-methyl-[1,1′-biphenyl]-4-yl)carbonyl]-10,11-dihydro-5H-pyrrolo[2,1-c][1,4]benzodiazepin-3-yl}[2-(3-pyridinyl)-1-piperidinyl]methanone] | 8 |
| COc1ccccc1-c1ccc(C(=O)N2Cc3ccc(C(=O)N4CCCCC4c4cccnc4)n3Cc3ccccc32)cc1 (stereo not shown) [Example 139, {10-[(2′-Methoxy-[1,1′-biphenyl]-4-yl)carbonyl]-10,11-dihydro-5H-pyrrolo[2,1-c][1,4]benzodiazepin-3-yl}[2-(3-pyridinyl)-1-piperidinyl]methanone] | 21 |
| COc1cc(-c2ccccc2C)c(Cl)cc1C(=O)N1Cc2ccc(C(=O)N3CCCCC3c3cccnc3)n2Cc2ccccc21 (stereo not shown) [Example 140, {10-[(6-Chloro-3-methoxy-2′-methyl-[1,1′-biphenyl]-4-yl)carbonyl]-10,11-dihydro-5H-pyrrolo[2,1-c][1,4]benzodiazepin-3-yl}[2-(3-pyridinyl)-1-piperidinyl]methanone] | -3 |
| COc1ccccc1-c1ccc(C(=O)N2Cc3ccc(C(=O)N4CCCCC4c4cccnc4)n3Cc3ccccc32)cc1OC (stereo not shown) [Example 141, {10-[(2,2′-Dimethoxy-[1,1′-biphenyl]-4-yl)carbonyl]-10,11-dihydro-5H-pyrrolo[2,1-c][1,4]benzodiazepin-3-yl}[2-(3-pyridinyl)-1-piperidinyl]methanone] | 9 |
| Cc1cc(C(=O)N2Cc3ccc(C(=O)N4CCCCC4c4cccnc4)n3Cc3ccccc32)ccc1-c1ccccc1C(F)(F)F (stereo not shown) [Example 142, (10-{[2-Methyl-2′-trifluoromethyl-[1,1′-biphenyl]-4-yl]carbonyl}-10,11-dihydro-5H-pyrrolo[2,1-c][1,4]benzodiazepin-3-yl)[2-(3-pyridinyl)-1-piperidinyl]methanone] | -5 |
| COc1cc(C(=O)N2Cc3ccc(C(=O)N(C)CCc4ccccn4)n3Cc3ccccc32)ccc1-n1c(C)ccc1C [Example 144, 10-[4-(2,5-Dimethyl-1H-pyrrol-1-yl)-3-methoxybenzoyl]-N-methyl-N-[2-(pyridin-2-yl)ethyl]-10,11-dihydro-5H-pyrrolo[2,1-c][1,4]benzodiazepine-3-carboxamide] | 11 |
| COc1cc(C(=O)N2Cc3ccc(C(=O)N4CCN(c5ccccn5)CC4)n3Cc3ccccc32)ccc1-n1c(C)ccc1C [Example 145, {10-[4-(2,5-Dimethyl-1H-pyrrol-1-yl)-3-methoxybenzoyl]-10,11-dihydro-5H-pyrrolo[2,1-c][1,4]benzodiazepin-3-yl}[4-(pyridin-2-yl)-1-piperazinyl]methanone] | -1 |
